Assays:
[1] = system: Central artery of a rabbit's ear; test: In vitro antispastic action, adrenalin-induced spasm of the perfused isolated artery; details: spasm induced by Adrenalin, n=4
Method: An "in vitro" method has been used, according to which the withdrawal of the central artery of a rabbit's ear with the relevant nervous connections and the equipment of an appropriate seat for secluded organs was designed (Fleckenstein A., British Journal of Pharmacology 7, 533, 1952).
On the artery they did install a three-ways tube, connected with a peristaltic pump and with a mercury manometer to record the perfusion pressure. The artery was perfused with a rebs liquid at the speed of 2,5 ml/minute. The contractions were induced by injecting into the vessel 0,1 ml adrenalin at the concentration of 1 mcg/ml. The compound according to the example 1 has been added to the bath at concentrations of 0,5 - 1 - 2 uM, five minutes before the adrenalin (four preparations per concentration). As comparison drugs, chlorhydra ted Buflomedil and Papaverin have been used. The activity of the material under investigation has been appreciated in terms of percentages referring to the concentration induced by the Adrenalin (and expressed with DE₅₀) and the relevant forbidding.

[2] = system: aggregation of the platelets caused by the collagene; test: Anti-aggregating ex vivo activity against collagen in the rat
Method: Six groups of 15 male rats of 200 - 250 g have been used.
The blood taken from the three rats of each group has been mixed and centrifuged during 6 minutes at 1400 rpm, at room temperature. After having taken the plasma full of platelets (PRP) the thereunder floating material has been centrifuged again (4000 rpm during 10 minutes) in order to have the plasma with few platelets (PPP) separated from the balance. The PRP has been diluted with a part of PPP in order to bring the number of platelets to 350 ± 50 x 10³/mm³. The aggregation has been evaluated in accordance with the method of Minsker D.H. and coll. (J. Pharmacol.Exp.Ther. 210 37 1979) by using an ELVI 840 two-channels aggregometer and an Omniscribe recorder B.500. A quantity of 0,25 ml PRP has been used, transferred into the aggregometer for two minutes at 37°C and stirred at 1000 rpm. The light intensity was arranged in such a way, to obtain 0% transmittance with the PRP and 100% with the PPP. After 2′ incubation, by means of microsyringe the collagene was added to the PRP in a volume quantity of 5 mcl with the final concentration of 4 mcg/ml.
From the aggregation trace of the recorder the following data have been evaluated: • a) latent time of the aggregation (seconds between the introductions of collagene and the starting of the aggregation) • b) transmittance increase percentage (maximum aggregation). The same proceeding was repeated for all animals, always by mixing the blood of three rats belonging to the same group and by obtaining in this manner five aggregation curves per group.

red cells in the rat [3] = test: Red cell adhesivity / filtration, Teitel method; assay type: in vivo
From the text: (§1) steresis (Teiltel P.: Nouv. Rev. Franç. Hématol. 7, 195, 1967). Any alteration, almost undoubtely at the level of the red cell's membrane, cause some damaging variations of the red cell's elasticity thus making more difficult the passing through the capillary vessels having more reduced diameter, and therefore increasing the flow resistance in the peripheral vessels systems. In order to determine the effect caused by the compound according to the Example 1, on these features of the red cell, the method described by Schmidt, Schonbein and colleagues (Blut 26, 369, 1973) has been used.
(§2) In the circulatory flow, the above mentioned capillary vessels being excluded, the blood cells do normally circulate being attached between each other because of their adhesiveness. In order to study this adhesion force, the above mentioned Teitel method has been used. Male rats of 150 g body weight approximately have been employed, and they have been treated for three consecutive days with 0,5 mM/kg/os of the compound according to the Example 1, or otherwise Buflomedil, or even Pentosiphillin used as comparison substance. After the last treatment the animals, without eating from 18 hours, have been killed in a light ethereal anaesthesy and the blood was collected over an 0,2 molar EDTA (9 and 1 volumes respectively). The red cells filtering possibility, measured with the Teitel method, wherein the quantity of red cells passing, in high haematocritical conditions, through a paper filter with holes of 20-40 µm in a previously determined time, has been ascertained as follows: the blood was centrifuged for ten minutes at 2000 rpm in order to obtain the massing of the red cells, two ml of the blood collected as above were put into an upside down turned cone made with filtering paper, being previously wetted with a physiological solution. The volume passing through the filter in 2 - 4 - 8 and 16 minutes is then measured. The average filtration time T 1/2 is reckoned on semi-logarithmic paper by putting on the abscissae the logarithm of the time, and on the ordinates the percentage of blood filtered. In order to follow the Schmidt Schönbein method, the here after described proceeding has been performed: 0,2 ml of a suspension of red cells at 2% obtained by diluting the blood with the autological plasma, then it was placed into an appropriate device permitting to filter this blood through a filter (millipores) of 5 µm mashes at a filtration pressure of 50 mm water. With a chronometer one determines the time required for the passage of the whole sample through the filter.
At time same time, one measures, in the same conditions, the same parameter for a plasma sample. One calculates then the relative filtration time by dividing the time required to filter the diluted blood sample by the time being necessary to filter the plasma sample. For each group the average and the standard error of the individual data obtained was reckoned. The statistical evaluation was obtained by means of the Dunnett test.

[4] = system: skin temperature of the mouse's paw; test: Peripheral vessel-dilating activity in the mouse (skin temperature of hind paws); assay type: in vivo; details: listed as buflomedil HCl; for Temperature (°C) of the hind paws (n=10): intravenous, dose 0,030 mM/kg/iv; for Temperature (°C) of the hind paws: oral, dose 0,500 mM/kg/os
Method: The method of Richter W. (Acta Pharm. Toxicol. 21, 91; 1974) was used; it consists in determining, at fixed time intervals after the treatment, the skin temperature of the mouse's paw, by keeping the animals in rooms at a constant temperature of 21°C.
Some groups of ten male mouses each have been used; the weight of each animal was 30 g approximately.
The compound according to the Example 1 has been tested "per os" at three basic levels of the doses (0,125 - 0,25 - 0,5 mM/kg) and by intravenous injection at two dose levels (0,015 and 0,03 mM/kg), in comparison with one sole dose of Papaverin and chlorhydrated Buflomedil (0,5 mM/kg "per os" and 0,03m M/kg intravenous). The observation of the skin temperature at the mouse's paw was made before the treatment, 30, 60 and 120 minutes after the "per os" treatment, […] (A-Hl Ellab) connected with an Ellab electric recorder. Of each animal the temperature of both hind paws has been measured, and the values obtained have been averaged .

red cells in the rat [5] = test: Red cell deformability / filtration, Schmidt-Schönbein method; assay type: in vivo; details: dose 3 x 0,5 mM/kg/os
From the text: as §1
as §2, with “The average filtration time T 1/2 is reckoned on semi-logarithmic paper by putting on the abscissae the logarithm of the time, and on the ordinates the percentage of blood filtered. In order to follow the Schmidt Schönbein method, the here after described proceeding has been performed: 0,2 ml of a suspension of red cells at 2% obtained by diluting the blood with the autological plasma, then it was placed into an appropriate device permitting to filter this blood through a filter (millipores) of 5 µm mashes at a filtration pressure of 50 mm water. With a chronometer one determines the time required for the passage of the whole sample through the filter.” left out

[6] = rat, 1,00 mM/kg os for 4 days, PRP 2 hours after last treatment, collagene 4 mcg/ml, listed as Chlorhydrated Buflo-medil
[7] = rat, 1,00 mM/kg os for 4 days, listed as Chlorhydrated Buflo-medil
[8] = 0 minutes (before the treatment)

COc1cc(OC)c(C(=O)CCCN2CCCC2)c(OC)c1 [Buflomedil, reference compound]
EC50 ([1]; Oryctolagus cuniculus, read-out: DE50 (the source's name)): 670 nM
% inhibi-tions of the con-tractions ([1]; concentration 0,5 μ M): 41%
% inhibi-tions of the con-tractions ([1]; concentration 1,0 μ M): 60%
% inhibi-tions of the con-tractions ([1]; concentration 2,0 μ M): 87%
effect relative to that caused by the same dose of the compound according to the example 1 ([2]; rat, 1 mM/kg os, platelet aggregation by collagene): approximately 50%
Latency time (sec.) [2, 6]: 51,9 ± 3,7 sec.
Transmittance percentage (maximum aggregation) [2, 6]: 54,2 ± 4,5%
Latency time, % variation vs controls [2, 7]: +38,4%
Transmittance percentage, % variation vs controls [2, 7]: -31%
Teitel method Δ % vs contr. (red cells in the rat [3]; dose 3 x 0,5 mM/kg/os): 20,3%
Teitel method T1/2 min. M ± E.S. (red cells in the rat [3]; dose 3 x 0,5 mM/kg/os (three consecutive days)): 2,90 ± 0,28 min.
Temperature (°C) of the hind paws (n=10) [4, 8]: 24,3 ± 0,32 °C
Temperature (°C) of the hind paws (n=10) ([4]; 30 minutes from the treatment): 26,6 ± 0,20 °C
Temperature (°C) of the hind paws (n=10) ([4]; 60 minutes from the treatment): 26,3 ± 0,24 °C
Temperature (°C) of the hind paws (n=10) ([4]; 120 minutes from the treatment): 26,0 ± 0,18 °C
Temperature (°C) of the hind paws [4, 8]: 24,2 ± 0,30 °C
Temperature (°C) of the hind paws ([4]; 30 minutes from the treatment): 25,8 ± 0,25 °C
Temperature (°C) of the hind paws ([4]; 60 minutes from the treatment): 26,5 ± 0,50 °C
Temperature (°C) of the hind paws ([4]; 120 minutes from the treatment): 26,1 ± 0,42 °C
Schmidt-Schönbein method Δ % vs contr. (red cells in the rat [5]): 24,2%
